Structures are written as SMILES. The source made the active and inactive calls. The rule behind the calls is not given here.

Data set [1] relates to Bombus terrestris. As to the kind of experiment: Toxicity against worker Bombus terrestris (bumblebee) assessed as mortality at 55 mg a.i./l, po administered through pollen for 11 weeks measured everyday for 3 days followed by once a week for 11 weeks. It is filed as functional, organism-based.
The subject of data set [2] is Bombus terrestris. As to the kind of experiment: Contact toxicity against worker Bombus terrestris (bumblebee) assessed as reduction in reproduction at 55 mg a.i./l applied on the dorsal thorax for 11 weeks measured once a week for 11 weeks relative to control. The format is functional, organism-based.
The subject of data set [3] is Bombus terrestris. As to the kind of experiment: Toxicity against po dosed worker Bombus terrestris (bumblebee) administered through sugar water for 11 weeks measured everyday for 3 days followed by once a week for 11 weeks. The format is functional.
Data set [4] relates to Bombus terrestris. As to the kind of experiment: Toxicity against worker Bombus terrestris (bumblebee) assessed as reduction in reproduction at 55 mg a.i./l, po administered through sugar water for 11 weeks measured once a week for 11 weeks relative to control. The format is functional, organism-based.
For data set [5], the system named is Bombus terrestris. As to the kind of experiment: Contact toxicity against worker Bombus terrestris (bumblebee) assessed as mortality at 55 mg a.i./l applied on the dorsal thorax for 11 weeks measured everyday for 3 days followed by once a week for 11 weeks. It is filed as functional.
The test system of data set [6] is Bombus terrestris. As to the kind of experiment: Toxicity against worker Bombus terrestris (bumblebee) assessed as mortality at 55 mg a.i./l, po administered through sugar water measured after 9 to 11 weeks. The format is functional, organism-based.
For data set [7], the system named is Bombus terrestris. As to the kind of experiment: Toxicity against worker Bombus terrestris (bumblebee) assessed as mortality at 55 mg a.i./l, po administered through sugar water for 11 weeks measured everyday for 3 days followed by once a week for 11 weeks. The format is functional.
In data set [8] the test system is Bombus terrestris. As to the kind of experiment: Toxicity against worker Bombus terrestris (bumblebee) assessed as reduction in reproduction at 55 mg a.i./l, po administered through pollen for 11 weeks measured once a week for 11 weeks. The format is functional. Further details: scale not given: the % may be the effect or the level left.
Data set [9] deals with Bombus terrestris. As to the kind of experiment: Toxicity against worker Bombus terrestris (bumblebee) assessed as reduction in reproduction at 50 mg a.i./l, po administered through sugar water for 11 weeks measured once a week for 11 weeks relative to control. The arrangement: scale not given: the % may be the effect or the level left. The format is functional.
Data set [10] is described as follows: n-octanol-water distribution coefficient, log KOW of the compound. It is filed as physicochemical. Particulars: read-out: log KOW.
Data set [11] deals with Bombus terrestris. As to the kind of experiment: Toxicity against worker Bombus terrestris (bumblebee) assessed as reduction in reproduction at 50 mg a.i./l, po administered through pollen for 11 weeks measured once a week for 11 weeks. It is filed as functional. The arrangement: scale not given: the % may be the effect or the level left.
In data set [12] the test system is Bombus terrestris. As to the kind of experiment: Contact toxicity against worker Bombus terrestris (bumblebee) assessed as reduction in reproduction at 50 mg a.i./l applied on the dorsal thorax for 11 weeks measured once a week for 11 weeks relative to control. The format is functional, organism-based.
Data set [13] relates to Bombus terrestris. As to the kind of experiment: Toxicity against worker Bombus terrestris (bumblebee) assessed as mortality at 50 mg a.i./l, po administered through pollen for 11 weeks measured everyday for 3 days followed by once a week for 11 weeks. It is filed as functional, organism-based.
The subject of data set [14] is Bombus terrestris. As to the kind of experiment: Contact toxicity against worker Bombus terrestris (bumblebee) assessed as mortality at 50 mg a.i./l applied on the dorsal thorax for 11 weeks measured everyday for 3 days followed by once a week for 11 weeks. It is filed as functional.
The test system of data set [15] is Bombus terrestris. As to the kind of experiment: Toxicity against worker Bombus terrestris (bumblebee) assessed as mortality at 50 mg a.i./l, po administered through sugar water measured after 4 to 6 weeks. It is filed as functional, organism-based.
In data set [16] the test system is Apis mellifera. As to the kind of experiment: Toxicity against Apis mellifera (honey bee) assessed as adverse efffect at 250 mg/l. It is filed as functional, organism-based.
Data set [17] relates to Bombus terrestris. As to the kind of experiment: Toxicity against worker Bombus terrestris (bumblebee) assessed as mortality at 50 mg a.i./l, po administered through sugar water for 11 weeks measured everyday for 3 days followed by once a week for 11 weeks. The format is functional.
The subject of data set [18] is Bombus terrestris. As to the kind of experiment: Contact toxicity against worker Bombus terrestris (bumblebee) assessed as mortality at 125 mg a.i./l applied on the dorsal thorax for 11 weeks measured everyday for 3 days followed by once a week for 11 weeks. It is filed as functional.
Data set [19] has as its system Bombus terrestris. As to the kind of experiment: Toxicity against worker Bombus terrestris (bumblebee) assessed as reduction in reproduction at 125 mg a.i./l, po administered through pollen for 11 weeks measured once a week for 11 weeks. The format is functional, organism-based.
The subject of data set [20] is Bombus terrestris. As to the kind of experiment: Toxicity against worker Bombus terrestris (bumblebee) assessed as mortality at 125 mg a.i./l, po administered through pollen for 11 weeks measured everyday for 3 days followed by once a week for 11 weeks. It is filed as functional, organism-based.
In data set [21] the test system is Bombus terrestris. As to the kind of experiment: Contact toxicity against worker Bombus terrestris (bumblebee) assessed as reduction in reproduction at 125 mg a.i./l applied on the dorsal thorax for 11 weeks measured once a week for 11 weeks relative to control. It is filed as functional, organism-based.
The subject of data set [22] is Bombus terrestris. As to the kind of experiment: Toxicity against worker Bombus terrestris (bumblebee) assessed as mortality at 125 mg a.i./l, po administered through sugar water for 11 weeks measured everyday for 3 days followed by once a week for 11 weeks. The format is functional.
Data set [23] relates to Bombus terrestris. As to the kind of experiment: Toxicity against worker Bombus terrestris (bumblebee) assessed as reduction in reproduction at 125 mg a.i./l, po administered through sugar water for 11 weeks measured once a week for 11 weeks relative to control. The format is functional, organism-based.
Data set [24] relates to Bombus terrestris. As to the kind of experiment: Toxicity against worker Bombus terrestris (bumblebee) assessed as mortality at 75 mg a.i./l, po administered through sugar water measured after 9 to 11 weeks. It is filed as functional, organism-based.
The subject of data set [25] is Bombus terrestris. As to the kind of experiment: Contact toxicity against worker Bombus terrestris (bumblebee) assessed as reduction in reproduction at 75 mg a.i./l applied on the dorsal thorax for 11 weeks measured once a week for 11 weeks relative to control. It is filed as functional, organism-based.
Data set [26] concerns Bombus terrestris. As to the kind of experiment: Toxicity against worker Bombus terrestris (bumblebee) assessed as mortality at 75 mg a.i./l, po administered through pollen for 11 weeks measured everyday for 3 days followed by once a week for 11 weeks. The format is functional.
Data set [27] concerns Bombus terrestris. As to the kind of experiment: Contact toxicity against worker Bombus terrestris (bumblebee) assessed as mortality at 75 mg a.i./l applied on the dorsal thorax measured up to 1 week. The format is functional, organism-based.
Data set [28] deals with Bombus terrestris. As to the kind of experiment: Toxicity against worker Bombus terrestris (bumblebee) assessed as reduction in reproduction at 75 mg a.i./l, po administered through pollen for 11 weeks measured once a week for 11 weeks. The format is functional, organism-based.
The subject of data set [29] is Bombus terrestris. As to the kind of experiment: Contact toxicity against worker Bombus terrestris (bumblebee) assessed as mortality at 75 mg a.i./l applied on the dorsal thorax for 11 weeks measured everyday for 3 days followed by once a week for 11 weeks. The format is functional.
In data set [30] the test system is Bombus terrestris. As to the kind of experiment: Toxicity against worker Bombus terrestris (bumblebee) assessed as reduction in reproduction at 75 mg a.i./l, po administered through sugar water for 11 weeks measured once a week for 11 weeks relative to control. The format is functional, organism-based.
Data set [31] deals with Bombus terrestris. As to the kind of experiment: Toxicity against worker Bombus terrestris (bumblebee) assessed as mortality at 75 mg a.i./l, po administered through sugar water for 11 weeks measured everyday for 3 days followed by once a week for 11 weeks. It is filed as functional.

Take `CCOc1cc(C(C)(C)C)ccc1C1COC(c2c(F)cccc2F)=N1` (configuration not stated) [ETOXAZOLE]: the outcome in data set [1] was inactive. In addition, the outcome in [2], in data set [4] and in data set [6] was Active. Further, the LC50 in data set [3] is given as 4.4 mgAi/L. The no-observed-adverse-effect level (NOAEL) in data set [3] was determined as 0.55 mgAi/L. Moreover, the mortality at 55 µg/mL in data set [5] is under 25%; in [7], 95%. Moreover, in data set [8], the Activity was found to be 25%.
As to `Cc1nn(C)c(Oc2ccccc2)c1/C=N/OCc1ccc(C(=O)OC(C)(C)C)cc1` [FENPYROXYMATE], the Activity stood at 90% in data set [9] and 50% in data set [11]. Moreover, the logP in data set [10] was determined as 5.01. Also, the result in [12], in [13] and in data set [16] was inactive. In addition, the mortality at 50 µg/mL in [14] is under 25%; in data set [17], 95%. Also, the outcome in [15] was Active.
As to `O=C(NC(=O)c1c(F)cccc1F)Nc1ccc(CO/N=C(/c2ccc(Cl)cc2)C2CC2)cc1` [FLUCYCLOXURON], the mortality at 125 µg/mL in data set [18] was under 25%; in [22], 25%. Besides, the outcome in data set [19] and in data set [21] was Active. The result in [20] and in data set [23] was inactive.
For `CC(C)(C)c1ccc(CSc2cnn(C(C)(C)C)c(=O)c2Cl)cc1` [PYRIDABEN], the outcome in data set [24], in data set [27], in data set [28] and in [30] was Active. Besides, the result in data set [25] was inactive. The mortality at 75 µg/mL came out at 90% in data set [26], 50% in data set [29] and 95% in [31].

As usually defined, the NOAEL is the highest tested level that showed no adverse finding. Broadly, the mortality is the percentage killed.

The values above are taken from ChEMBL document CHEMBL3045684, “Compatibility of traditional and novel acaricides with bumblebees (Bombus terrestris): a first laboratory assessment of toxicity and sublethal effects” (Pest Manag Sci, 2010).
